Source: patent US12208088B2 (Genentech, Inc., priority 2018, dated 2025)
pKi: −log10 of the molar value.

These compounds were tested against HPK1 (Homo sapiens (Human), UniProt Q92918) (assay: HPK1 Lantha binding assay ("Lanth")). Conditions: binding assays; Morrison Ki fit.
How it was run: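 TR-FRET binding competition using 2 nM HPK1, 2 nM Eu-anti-GST antibody and 15 nM Tracer222 at 23 °C. Compound was incubated 1 h with enzyme and antibody, then 1 h after tracer addition, with an 11-point 5-fold dilution series. Ki obtained from a Morrison fit that corrects for tracer concentration and Kd.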

HPK1, sequence (Q92918 1-346 limits assumed): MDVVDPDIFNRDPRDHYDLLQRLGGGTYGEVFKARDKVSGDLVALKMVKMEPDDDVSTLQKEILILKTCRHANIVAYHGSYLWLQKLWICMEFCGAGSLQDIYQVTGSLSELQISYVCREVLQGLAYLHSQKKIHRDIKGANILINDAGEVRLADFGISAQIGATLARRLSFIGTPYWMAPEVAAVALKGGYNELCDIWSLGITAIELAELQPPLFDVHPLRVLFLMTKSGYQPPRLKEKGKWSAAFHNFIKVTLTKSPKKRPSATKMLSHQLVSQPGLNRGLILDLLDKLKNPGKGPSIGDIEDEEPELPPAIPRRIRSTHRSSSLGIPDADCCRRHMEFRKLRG

Compound | pKi
OCc1ccc(-c2cnc3c(c2Cl)C2(CC=CC2)CN3)c(F)c1 [Compound 216, (4-(4′-Chloro-1′,2′-dihydrospiro[cyclopentane-1,3′-pyrrolo[2,3-b]pyridin]-3-en-5′-yl)-3-fluorophenyl)methanol] | 6.48
COc1c(-c2ccc(N)c(C(=O)N(C)C)c2F)cnc2c1[C@]1(CC[C@@H](O)CC1)CN2 [Compound 113a, 6-Amino-2-fluoro-3-((1r,4r)-4-hydroxy-4′-methoxy-1′,2′-dihydrospiro[cyclohexane-1,3′-pyrrolo[2,3-b]pyridin]-5′-yl)-N,N-dimethylbenzamide] | 7.41
CN(C)C(=O)c1c(N)ccc(-c2cnc3c(c2)[C@]2(CN3)C[C@@H](C(N)=O)C2)c1F [Compound 97a] | 7.30
COc1c(-c2ccc(N)c(C(=O)N(C)C)c2F)cnc2c1[C@]1(CC[C@H](O)CC1)CN2 [Compound 113b, 6-Amino-2-fluoro-3-((1s,4s)-4-hydroxy-4′-methoxy-1′,2′-dihydrospiro[cyclohexane-1,3′-pyrrolo[2,3-b]pyridin]-5′-yl)-N,N-dimethylbenzamide] | 7.82
N#CCCNC(=O)c1ccc(-c2cnc3c(c2Cl)C2(CC=CC2)CN3)cc1 [Compound 221, 4-(4′-Chloro-1′,2′-dihydrospiro[cyclopentane-1,3′-pyrrolo[2,3-b]pyridin]-3-en-5′-yl)-N-(2-cyanoethyl)benzamide] | 6.52
O=C(c1cccc(-c2cnc3c(c2)C2(CC2)CN3)c1F)N1CCCCC1 [Compound 232, (3-(1′,2′-dihydrospiro[cyclopropane-1,3′-pyrrolo[2,3-b]pyridin]-5′-y1)-2-fluorophenyl)(piperidin-1-yl)methanone] | 7.47
CN(C)C(=O)c1c(N)ccc(-c2cnc3c(c2Cl)[C@]2(CC[C@H](O)C2)CN3)c1F [Compound 38c, 6-Amino-3-((1R,3S)-4′-chloro-3-hydoxy-1′,2′-dihydrospiro[cyclopentane-1,3′-pyrrolo[2,3-b]pyridin]5′-yl)-2-fluoro-N,N-dimethylbenzamide] | 8.07
CC1(C#N)CCCN1C(=O)c1cccc(-c2cnc3c(c2)C2(CC2)CN3)c1F (single isomer, unassigned) [Compound 191a] | 7.46
CN(C)C(=O)c1c(N)ccc(-c2cnc3c(c2Cl)[C@]2(CC[C@H](C(=O)NCCO)C2)CN3)c1F (relative stereo) [Compound 106a, (1R,3S)-5′-(4-Amino-3-(dimethylcarbamoyl)-2-fluorophenyl)-4′-chloro-N-(2-hydroxyethyl)-1′,2′-dihydrospiro[cyclopentane-1,3′-pyrrolo[2,3-b]pyridine]-3-carboxamide] | 7.63
Cc1cc(C#N)nn1[C@H]1CC[C@@]2(CNc3ncc(-c4ccc(N)c(C(=O)N(C)C)c4F)c(Cl)c32)C1 (single isomer, unassigned) [Compound 162a] | 6.99
O=C1NCCCN1c1cccc(-c2cnc3c(c2)C2(CC2)CN3)c1 [Compound 67, 1-(3-(1′,2′-Dihydrospiro[cyclopropane-1,3′-pyrrolo[2,3-b]pyridin]-5′-yl)phenyl)tetrahydropyrimidin-2(1H)-one] | 7.56
CN(C)C(=O)c1c(N)ccc(-c2cnc3c(c2Cl)[C@]2(CC[C@H](n4cncn4)C2)CN3)c1F [Compound 85a, 6-Amino-3-((1R,3S)-4′-chloro-3-(1H-1,2,4-triazol-1-yl)-1′,2′-dihydrospiro[cyclopentane-1,3′-pyrrolo[2,3-b]pyridin]-5′-yl)-2-fluoro-N,N-dimethylbenzamide] | 7.32
CN(C)C(=O)c1c(N)ccc(-c2cnc3c(c2)[C@]2(CN3)C[C@@H](n3cncn3)C2)c1F [Compound 88a] | 6.90
CN(C)C(=O)c1c(N)ccc(-c2cnc3c(c2Cl)[C@]2(CC[C@@](O)(Cn4ccnc4)C2)CN3)c1F (relative stereo) [Compound 117a, 3-((1R,3S)-3-((1H-Imidazol-1-yl)methyl)-4′-chloro-3-hydroxy-1′,2′-dihydrospiro[cyclopentane-1,3′-pyrrolo[2,3-b]pyridin]-5′-yl)-6-amino-2-fluoro-N, N-dimethylbenzamide] | 6.61
O=C(c1cccc(-c2cnc3c(c2)C2(CC2)CN3)c1F)N1CCC12COC2 [Compound 147, (3-(1′,2′-dihydrospiro[cyclopropane-1,3′-pyrrolo[2,3-b]pyridin]-5′-yl)-2-fluorophenyl)(6-oxa-1-azaspiro[3.3]heptan-1-yl)methanone] | 7.21
CCNS(=O)(=O)c1ccc(-c2cnc3c(c2Cl)C2(CC=CC2)CN3)cc1 [Compound 189, 4-(4′-Chloro-1′,2′-dihydrospiro[cyclopentane-1,3′-pyrrolo[2,3-b]pyridin]-3-en-5′-yl)-N-ethylbenzenesulfonamide] | 6.50
CC(=O)NCc1cccc(-c2cnc3c(c2Cl)C2(CC=CC2)CN3)c1 [Compound 211, N-(3-(4′-Chloro-1′,2′-dihydrospiro[cyclopentane-1,3′-pyrrolo[2,3-b]pyridin]-3-en-5′-yl)benzyl)acetamide] | 6.84
CN(CCC#N)C(=O)c1cccc(-c2cnc3c(c2)C2(CC2)CN3)c1F [Compound 138, N-(2-cyanoethyl)-3-(1,2′-dihydrospiro[cyclopropane-1,3′-pyrrolo[2,3-b]pyridin]-5′-yl)-2-fluoro-N-methylbenzamide] | 7.41

Continued, values first:

pKi | Compound
7.37 | c1cc2c(-c3cnc4c(c3)C3(CC3)CN4)c[nH]c2cn1 [Compound 333, 5-(1H-Pyrrolo[2,3-c]pyridin-3-yl)spiro[1,2-dihydropyrrolo[2,3-b]pyridine-3,1′-cyclopropane]]
6.66 | CC1(C#N)C(=O)Nc2ccc(-c3cnc4c(c3Cl)C3(CC3)CN4)cc21 (stereo not shown) [Compound 282, 5-(4′-chloro-1′,2′-dihydrospiro[cyclopropane-1,3′-pyrrolo[2,3-b]pyridin]-5′-yl)-3-methyl-2-oxoindoline-3-carbonitrile]
7.13 | O=C1NCCC1c1nc2ccc(-c3cnc4c(c3Cl)C3(CC3)CN4)cc2[nH]1 (racemic) [Compound 283, (±)-3-(6-(4′-Chloro-1′,2′-dihydrospiro[cyclopropane-1,3′-pyrrolo[2,3-b]pyridin]-5′-yl)-1H-benzo[d]imidazol-2-yl)pyrrolidin-2-one]
6.99 | 1-(3-(1′,2′-Dihydrospiro[cyclopropane-1,3′-pyrrolo[2,3-b]pyridin]-5′-yl)phenyl)piperazin-2-one [Compound 41]
7.13 | C[C@]1(C#N)CC[C@@]2(CNc3ncc(-c4c[nH]c5ccc(C#N)cc45)c(Cl)c32)C1 (relative stereo) [Compound 330a, (1R,3S)-4′-Chloro-5′-(5-cyano-1H-indol-3-yl)-3-methyl-1′,2′-dihydrospiro[cyclopentane-1,3′-pyrrolo[2,3-b]pyridine]-3-carbonitrile]
6.99 | CC(C)[C@@H]1C[C@@]12CNc1ncc(-c3ccc(N)c(C(=O)N(C)C)c3F)cc12 (single isomer, unassigned) [Compound 234c]
7.83 | CN(c1cc(C#N)cc2c(-c3cnc4c(c3)C3(CC3)CN4)c[nH]c12)S(C)(=O)=O [Compound 340, N-(5-Cyano-3-(1′,2′-dihydrospiro[cyclopropane-1,3′-pyrrolo[2,3-b]pyridin]-5′-yl)-1H-indol-7-yl)-N-methylmethanesulfonamide]
6.05 | Nc1ccc(-c2cnc3c(c2)C2(CC2)CN3)nc1C(=O)N1CC[C@@H](O)C1 [Compound 290b, (R)-(3-amino-6-(1′,2′-dihydrospiro[cyclopropane-1,3′-pyrrolo[2,3-b]pyridin]-5′-yl)pyridin-2-yl)(3-hydroxypyrrolidin-1-yl)methanone]
7.14 | Cc1ccc2[nH]cc(-c3cnc4c(c3)C3(CC3)CN4)c2c1 [Compound 313, 5′-(5-Methyl-1H-indol-3-yl)-1′,2′-dihydrospiro[cyclopropane-1,3′-pyrrolo[2,3-b]pyridine]]
6.72 | N#CCNC(=O)c1ccnc(-c2cccc(-c3cnc4c(c3Cl)C3(CC=CC3)CN4)c2F)c1 [Compound 269, 2-(3-(4′-Chloro-1′,2′-dihydrospiro[cyclopentane-1,3′-pyrrolo[2,3-b]pyridin]-3-en-5′-yl)-2-fluorophenyl)-N-(cyanomethyl)isonicotinamide]
6.92 | Clc1c(-c2cccc3[nH]ncc23)cnc2c1C1(CC=CC1)CN2 [Compound 286, 4-Chloro-5′-(1H-indazol-4-yl)-1′,2′-dihydrospiro[cyclopentane-1,3′-pyrrolo[2,3-b]pyridin]-3-ene]
7.92 | CN(Cc1cnn(CCO)c1)C(=O)c1cccc(-c2cnc3c(c2Cl)C2(CC=CC2)CN3)c1F [Compound 262, 3-(4′-Chloro-1′,2′-dihydrospiro[cyclopentane-1,3′-pyrrolo[2,3-b]pyridin]-3-en-5′-yl)-2-fluoro-N-((1-(2-hydroxyethyl)-1H-pyrazol-4-yl)methyl)-N-methylbenzamide]
8.21 | CN(C)C(=O)c1c(N)ccc(-c2cnc3c(c2Cl)[C@]2(CC[C@H](CO)C2)CN3)c1F (relative stereo) [Compound 259a, 6-Amino-3-((1R,3S)-4′-chloro-3-(hydroxymethyl)-1′,2′-dihydrospiro[cyclopentane-1,3′-pyrrolo[2,3-b]pyridin]-5′-yl)-2-fluoro-N,N-dimethylbenzamide]
6.31 | Fc1cccc2[nH]cc(-c3cnc4c(c3)C3(CC3)CN4)c12 [Compound 316, 5′-(4-Fluoro-1H-indol-3-yl)-1′,2′-dihydrospiro[cyclopropane-1,3′-pyrrolo[2,3-b]pyridine]]
7.51 | CN(CCN1CCOCC1)C(=O)c1c(N)ccc(-c2cnc3c(c2Cl)[C@]2(CC[C@](C)(C#N)C2)CN3)c1F (relative stereo) [Compound 272a, 6-Amino-3-((1R,3S)-4′-chloro-3-cyano-3-methyl-1′,2′-dihydrospiro[cyclopentane-1,3′-pyrrolo[2,3-b]pyridin]-5′-yl)-2-fluoro-N-methyl-N-(2-morpholinoethyl)benzamide]
7.54 | COc1c(-c2ccc(N)c(C(=O)N(C)C)n2)cnc2c1C1(CC1)CN2 [Compound 309, 3-Amino-6-(4′-methoxy-1′,2′-dihydrospiro[cyclopropane-1,3′-pyrrolo[2,3-b]pyridin]-5′-yl)-N,N-dimethylpicolinamide]
